Laboratory results as given in paper PMC11684029, “Discovery of VU6024578/BI02982816: An mGlu1 Positive Allosteric Modulator with Efficacy in Preclinical Antipsychotic and Cognition Models” (Journal of Medicinal Chemistry, 2024).

Key:
Format in all cases: in vivo
male beagles = assay: adverse events in dog PK; settings: 0.5 mg/kg IV
Description: Deeper profiling began with IV dog PK (0.5 mg/kg, n = 3 male beagles). […] Was this a mechanism-based toxicity in dog? Could there be dog-specific pharmacology of mGlu1 activation? Were these AEs derived from the 19d chemotype? Could a mGlu1/mGlu5 heterodimer be responsible for the observed AEs? […] In an attempt to address the chemotype question, we evaluated PAM 4 (VU6004909),[8] an early generation rodent in vivo tool compound, for the first time in dog PK. […] of the study with 19d, PAM 4 produced no AEs in dog. […] Therefore, more molecular pharmacology and PK studies as well as additional chemically distinct mGlu1 PAM chemotypes are required to understand the AEs elicited by an mGlu1 PAM in dogs, an otherwise very promising target for the treatment of schizophrenia.

Sprague–Dawley rats = assay: amphetamine-induced hyperlocomotion (rat)
Description: Here, administration of 0.75 mg/kg IP of amphetamine induced a robust hyperlocomotive state in rats (>1200 beam breaks), which was dose-dependently reversed by oral administration of 19d. […] Considering the longer time point for exposure and the results, mGlu1 has sufficient target coverage and PK/PD is established for this paradigm.[24]
Figure 7 Rat amphetamine-induced hyperlocomotion and reversal by VU6024578 (19d). Amphetamine (0.75 mg/kg IP) induced robust hyperlocomotion, which was dose-dependently reversed by oral administration (10% tween 80) of 19d. TEXT PRINTED IN THE PICTURE: VU6024578: Mean % reversal: -0.2 ± 13.0 (1 mg/kg p.o. + Amphetamine 0.75 mg/kg s.c.); Mean % reversal: 31.6 ± 10.2 (3 mg/kg p.o. + Amphetamine 0.75 mg/kg s.c.); Mean % reversal: 31.4 ± 4.3 (5.6 mg/kg p.o. + Amphetamine 0.75 mg/kg s.c.); Mean % reversal: 41.8 ± 7.1 (10 mg/kg p.o. + Amphetamine 0.75 mg/kg s.c.)
Adult male Sprague–Dawley rats placed into the activity chambers (Med Associates). Thirty minutes after placement in the chambers, the rats were administered VU6024578 (1–10 mg/kg p.o.) or vehicle. Sixty minutes later the rats were injected with amphetamine (0.75 mg/kg s.c. One ml/kg) or vehicle (saline) and placed back in the activity chambers for 90 min. The data for the studies were analyzed by a between-group 2 way analysis of variance for compound dose and time. Each dose group was compared with the vehicle control group. The calculations were performed and graphed using GraphPad Prism (version 4.03, GraphPad, La Jolla, CA). The AUC was analyzed by a 1-way ANOVA with a Dunnett’s post hoc test.

C57BL/6JRj mice = assay: 40 Hz ASSR, MK-801 induced deficit; settings: mouse
Description: We have also employed here event-related potentials (ERPs) and auditory-evoked oscillations, which serve as critical translational biomarkers, to assess the impact of our investigational drug on sensory processing and cognitive functions, providing valuable data on its potential efficacy in treating disorders like schizophrenia. Detailed description of the methodology, setup specifications and recording procedure and analysis of the 40 Hz auditory steady-state response (ASSR) protocol can be found in Schuelert et al.[27] […] Reduced entrainment of gamma oscillation reflects abnormalities in basic sensory registration and processing but is also associated with impaired higher cognitive functions.[32] ASSR can also be reliably impaired preclinically by different NMDA receptor antagonists.[33],[34] […] Abnormalities associated with the filtering or “gating” of sensory information are among the most consistent findings in schizophrenia research.[35] N100 gating deficits also correlated with negative-cognitive deficits dimensions of schizophrenia[36] and can be modeled preclinically with NMDA receptor antagonists.[37]19d reversed N1 sensory gating deficit induced by MK-801 with the highest dose of 10 mg/kg (Figure 12B). Mean plasma exposures in satellite mice after subcutaneous administration of 19d at 0.8, 4, and 10 mg/kg were 187, 1207, and 2490 nM, respectively.
The mGlu2/3 selective agonist LY379268 was used here as a positive control, applied also s.c. at 3 mg/kg dose. […] Data are shown as mean ± SEM (n = 13–19 for each treatment group). *P < 0.05, **P < 0.01, ***P < 0.005 compared with vehicle; #P < 0.05, ##P < 0.01 compared with MK-801. […]
Mice were placed in a plexiglass cage in an attenuated sound box and allowed to adapt to their environment for 20 min before subcutaneous administration of VU6024578 0.8, 4, and 10 mg/kg or vehicle (20% HP-β-CD in water). […] An infrared sensor on the Neurologger recorded the infrared trigger signals and trigger signals were saved in an individual trigger channel. […]

With `Cn1nc(-c2ccnn2C)cc1CNC(=O)c1cc(-c2ccco2)ccc1Cl` [Compound 19d, 2-Chloro-N-((1,2′-dimethyl-1H,2’H-[3,3′-bipyrazol]-5-yl)methyl)-5-(furan-2-yl)benzamide] the “adverse events (AEs) in dog” value (male beagles; 0.5 mg/kg) was “GI-salivation and rigidity”, the “time of AEs postdose” value (male beagles; at Cmax) was 1 to 3 min and the “adverse events (AEs) in dog” value (male beagles; listed as VU6024578/BI02982816, 0.5 mg/kg) was “unanticipated AEs”. For the same molecule, the “Mean % reversal of AHL” value (Sprague–Dawley rats; 1 mg/kg p.o.) was -0.2 ± 13.0%, the “Mean % reversal of AHL” value (Sprague–Dawley rats; 3 mg/kg p.o.) was 31.6 ± 10.2% and the “Mean % reversal of AHL” value (Sprague–Dawley rats; 5.6 mg/kg p.o.) was 31.4 ± 4.3%. The “Mean % reversal of AHL” value (Sprague–Dawley rats; 10 mg/kg p.o.) was 41.8 ± 7.1%, the “minimum effective dose (MED), AHL” value (Sprague–Dawley rats; p.o.) was 3 mg/kg and the “reversal of MK-801 deficit in 40 Hz ASSR intertrial coherence (PFC)” value (“reversal of MK-801 deficit” below) (C57BL/6JRj mice; 0.8 mg/kg s.c.) was “no significant effect”. The “reversal of MK-801 deficit” value (C57BL/6JRj mice; 4 mg/kg s.c.) was “complete reversal” and the “reversal of MK-801 deficit” value (C57BL/6JRj mice; 10 mg/kg s.c.) was “complete reversal”.
